Source: the supplement of paper PMC10307832

Experiments:
Assay in all cases: relative viability (nuclei count vs DMSO), 5 days (fraction); higher = more cells survive
[1] = compound: O=C(c1cc(Cc2n[nH]c(=O)c3ccccc23)ccc1F)N1CCN(C(=O)C2CC2)CC1 [Olaparib] + C[C@@H](Oc1cc(-c2cnn(C3CCNCC3)c2)cnc1N)c1c(Cl)ccc(F)c1Cl [Crizotinib] (partner 1 µM)
Summary of the method: (§1)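 Each reported value is a median over duplicate plates. It expresses relative viability: treated-well nuclei count divided by vehicle-well nuclei count. Lung cancer cell lines in 1536-well plates were dosed by pin tool a day after seeding, alone with one drug or with a fixed anchor-drug dose plus five library-drug doses (not always all listed) in √10 steps, and nuclei were counted after 5 days.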

[2] = compound: O=C(c1cc(Cc2n[nH]c(=O)c3ccccc23)ccc1F)N1CCN(C(=O)C2CC2)CC1 [Olaparib] + C[C@]1(O)C[C@@H](c2nc(-c3ccc4ccc(-c5ccccc5)nc4c3)c3c(N)nccn32)C1 [Linsitinib] (partner 1 µM)
Summary of the method: as §1

[3] = compound: CC(C)C[C@H](NC(=O)[C@H](CCc1ccccc1)NC(=O)CN1CCOCC1)C(=O)N[C@@H](Cc1ccccc1)C(=O)N[C@@H](CC(C)C)C(=O)[C@@]1(C)CO1 [Carfilzomib] + C[C@@H](Oc1cc(-c2cnn(C3CCNCC3)c2)cnc1N)c1c(Cl)ccc(F)c1Cl [Crizotinib] (partner 1 µM)
Summary of the method: as §1

[4] = compound: C[C@@H](Oc1cc(-c2cnn(C3CCNCC3)c2)cnc1N)c1c(Cl)ccc(F)c1Cl [Crizotinib] + NC(=O)Nc1cc(-c2cccc(F)c2)sc1C(=O)N[C@H]1CCCNC1 [AZD7762] (partner 0.2 µM)
Summary of the method: as §1

Cell Line	relative viability ([1]; first compound 0.08 µM)	relative viability ([1]; first compound 0.253 µM)	relative viability ([1]; first compound 2.53 µM)	relative viability ([1]; first compound 8 µM)	relative viability ([2]; first compound 0.08 µM)	relative viability ([2]; first compound 0.253 µM)	relative viability ([2]; first compound 2.53 µM)	relative viability ([2]; first compound 8 µM)	relative viability ([3]; first compound 0.001 µM)	relative viability ([3]; first compound 0.003162 µM)	relative viability ([3]; first compound 0.01 µM)	relative viability ([3]; first compound 0.03162 µM)	relative viability ([3]; first compound 0.1 µM)	relative viability ([4]; first compound 0.01 µM)	relative viability ([4]; first compound 0.03162 µM)	relative viability ([4]; first compound 0.1 µM)	relative viability ([4]; first compound 0.3162 µM)	relative viability ([4]; first compound 1 µM)
NCI-H1299	1.06	0.903	0.986	0.95	1	0.945	0.966	0.943	1.01	0.966	0.981	0.472	0.178	–	–	–	–	–
NCI-H1395	–	–	–	–	1.14	0.896	0.67	0.734	–	–	–	–	–	0.381	0.372	0.429	0.43	0.397
NCI-H1563	0.867	0.813	0.896	0.826	1.22	1.25	1.2	1.2	0.939	0.902	0.897	0.711	0.397	–	–	–	–	–
NCI-H1648	–	–	–	–	–	–	–	–	–	–	–	–	–	–	0.513	0.684	0.467	0.723
NCI-H1650	1.13	0.864	1.15	0.965	–	–	–	–	–	0.839	0.642	0.114	0.139	–	–	–	–	–
NCI-H2009	1.19	0.999	1.06	1.01	1.28	1.17	1.09	0.928	1.07	1.14	1.09	0.37	0.0428	–	–	–	–	–
NCI-H2023	0.789	0.661	0.658	0.574	0.754	0.608	0.535	0.469	0.666	0.64	0.733	0.375	0.0656	–	–	–	–	–
NCI-H2170	1.23	1.15	1.4	1.11	–	–	–	–	1.1	1.32	1.33	0.528	0.2	0.761	0.894	0.835	0.852	0.858
NCI-H2228	0.603	0.437	0.473	0.362	0.686	0.629	0.698	0.434	0.49	0.389	0.666	0.149	0.17	–	–	–	–	–
NCI-H2342	–	–	–	–	–	–	–	–	–	–	–	–	–	0.465	0.504	0.483	0.441	0.575
SK-LU-1	1.15	0.774	0.801	0.621	1.34	0.998	1.02	0.622	0.885	1.02	0.807	0.575	0.152	–	–	–	–	–
SK-MES-1	0.982	0.89	0.885	0.668	1.14	0.996	1.05	0.796	1.04	1.05	1.09	0.752	0.169	–	–	–	–	–
SW 900	–	–	–	–	–	–	–	–	–	–	–	–	–	0.54	0.627	0.616	0.663	0.617
SW 1573	0.788	0.768	0.601	0.57	0.893	0.889	0.661	0.73	0.887	0.864	0.793	0.261	0.0628	–	–	–	–	–
UMC-11	0.757	0.502	0.492	0.265	1.03	0.974	0.798	0.504	0.613	0.627	0.627	0.554	0.1	–	–	–	–	–
